Measurements: publication PMC10376059, “New NADPH Oxidase 2 Inhibitors Display Potent Activity against Oxidative Stress by Targeting p22^phox-p47^phox Interactions” (Antioxidants, 2023)

How the values were obtained:
HL-60 cells = assay: MTT cytotoxicity assay; type: cell-based, human; conditions: 72 h; for cytotoxicity (in words): 0.01 µM to 100 µM, MTT
Protocol: To verify the cytotoxicity of the acrylonitrile derivatives, the MTT reduction method was performed. Briefly, HL-60 cells were seeded in a flat-bottomed 96-well plate at a density of 10,000 cells per well. […] In a second series of experiments, cells were incubated under the same conditions but for 72 h. Etoposide was used as a positive control. Ten μL of MTT was added at a final concentration of 0.5 mg/mL, incubated at 37 °C for 4 h, and then solubilized with 10% SDS in 0.1 mM HCl and incubated overnight at 37 °C. Finally, a blue-colored compound (formazan) formation was measured at 570 nm in a multiplate reader (StatFax 4200, Awareness Technology, Inc., Palm City, FL, USA). The viability percentage was obtained as follows: Viability % = [treated cells DO × 100]/[DO cells control].

[1] = DPPH radical scavenging activity; type: physicochemical; conditions: for antioxidant effects in the pharmacological range (in words): up to 50 μM
Protocol: The newly synthesized compounds were evaluated for 2,2-diphenyl-1-picrylhydrazyl […] free radical scavenging activity. The reduction and stabilization of DPPH by antioxidant compounds lead to discoloration, resulting in a decrease in absorbance at 517 nm, which was expressed as a percentage of the radical solution at a given concentration of discoloration. The heteroarylacrylonitrile derivatives were re-suspended in a minimum of DMSO at a final concentration of 5 mg/mL (stock solution). From these, they were diluted to concentrations of 1000, 500, and 100 μg/mL. These solutions were mixed with a methanol solution of DPPH (20 μg/mL) for 5 min. Each compound was evaluated in triplicate; absorbance at 517 nm in a UNICAM UV/visible spectrophotometer Helios-α (Thermo Electron Corporation, Waltham, MA USA) was measured by subtracting the solvent absorbance and comparing the resulting value with that of a blank sample. The percentage of discoloration was established according to the following formula: % Radical removal or discoloration = (1 − (AM − ABM)/AC) × 100, where AM is the absorbance of the sample compound, ABM is the absorbance of the sample blank, and AC is the absorbance of the control. The degree of discoloration indicates the efficacy of the compounds studied as free radical scavengers; therefore, a percentage of discoloration of 100 indicates the maximum radical scavenging capacity and a value close to 0 indicates a zero radical scavenging capacity. Quercetin was used as a reference compound in a concentration range of 1.25 to 7.5 μg/mL.

p47^phox = target: T1, p47^phox (Homo sapiens, UniProt P14598); assay: p47phox translocation from cytosol to membrane (Western blot) in PMA-stimulated HL-60 differentiated cells; type: cell-based; conditions: PMA 0.8 µM, 50 μM
T1 construct: we evaluated p47^phox translocation from the cytosol to the membrane in HL-60 differentiated cells; endogenous in cells; host or cells: neutrophil-differentiated HL-60 cells treated with PMA; membrane and cytosolic fractions obtained by cryo-fracture
T1 sequence (P14598 1-390): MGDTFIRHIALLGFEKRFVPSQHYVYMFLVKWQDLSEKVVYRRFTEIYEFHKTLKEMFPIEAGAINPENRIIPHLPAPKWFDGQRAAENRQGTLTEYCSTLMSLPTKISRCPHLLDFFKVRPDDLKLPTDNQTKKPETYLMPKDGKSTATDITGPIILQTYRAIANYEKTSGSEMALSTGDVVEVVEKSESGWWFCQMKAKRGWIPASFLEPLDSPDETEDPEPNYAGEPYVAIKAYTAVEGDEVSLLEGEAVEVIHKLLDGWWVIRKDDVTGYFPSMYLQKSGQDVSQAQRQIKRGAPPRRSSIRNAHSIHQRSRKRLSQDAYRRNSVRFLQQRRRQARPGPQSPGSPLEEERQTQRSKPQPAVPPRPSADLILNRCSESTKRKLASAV
Protocol: Neutrophil-differentiated HL-60 cells (2 × 10^6 cells/mL) were incubated at 37 °C in a humid atmosphere with 5% CO2 and 50 μM of the different acrylonitrile compounds, then PMA 0.8 μM was added and incubated for 1 h to induce the activation of the enzyme NADPH oxidase. As a positive inhibition control, VAS2870 (20 μM) was used. Another two controls were performed: one with cells activated by PMA in the presence of DMSO, and the other (NA, non-activated) with cells in the absence of PMA and the acrylonitrile compounds. In 15 mL conical tubes, 5 mL of cell suspension from each treatment and control condition was transferred at 2 × 10^6 cells/mL and centrifuged at 1000 rpm at 4 °C for 10 min. The supernatant was then discarded, and each pellet was re-suspended in 2 mL of a 4% PBS solution with 2 mM EGTA and 0.25 mM PMSF frozen at −80 °C for 10 min. Then each pellet was thawed on ice. After this, the cell suspension was passed through a glass tissue homogenizer (Deltalab®, I.C.T, S.L, La Rioja, Spain) 20 times. The freezing-thawing and homogenization processes were repeated three times. Finally, the homogenate was centrifuged at 15,000 rpm at 4 °C for 15 min. The supernatant (cytosolic fraction) was removed from the pellet (membranes were prepared). A fraction was removed for the determination of total proteins, and the remainder was stored at −80 °C for further analysis. […]

Structure (SMILES) | cytotoxicity (in words) (HL-60 cells) | cytotoxicity (HL-60 cells; 1 µM (corresponding to the IC50 value)) | antioxidant capacity, DPPH discoloration (in words) [1] | antioxidant effects in the pharmacological range (in words) [1] | translocation of p47phox to the membrane (in words) (p47^phox) | antioxidant capacity, DPPH discoloration ([1]; concentration range 30–300 μM)
N#C/C(=C\c1cc(-c2ccccc2)on1)C(=O)c1c[nH]c2ccccc12 [Compound C6] | non-cytotoxic | about 55% | showed antioxidant capacity only at very high concentrations | minimal | significantly reduced the translocation of p47^phox to the membrane | 
N#C/C(=C\c1ccncc1)C(=O)c1c[nH]c2ccccc12 [Compound C14] | non-cytotoxic |  | showed antioxidant capacity only at very high concentrations | minimal |  | 12%
